Values of other authors, collected in article PMC6155437 (Molecules : A Journal of Synthetic Chemistry and Natural …, 2017).

How the values were obtained:
CYP3A4 = CYP3A4 (Homo sapiens, UniProt P08684); conditions: CYP3A4 activity; cited from earlier work
CYP2C9 = biological target: T1, CYP2C9 (Homo sapiens, UniProt P11712); set-up: method as in PMID 22166891; conditions: CYP2C9-catalyzed diclofenac hydroxylation in human liver microsomes; cited from earlier work
T1 construct: tissue Corning Life Sciences; host or cells: pooled human liver microsomes (150 donors)
T1 sequence (P11712 whole entry): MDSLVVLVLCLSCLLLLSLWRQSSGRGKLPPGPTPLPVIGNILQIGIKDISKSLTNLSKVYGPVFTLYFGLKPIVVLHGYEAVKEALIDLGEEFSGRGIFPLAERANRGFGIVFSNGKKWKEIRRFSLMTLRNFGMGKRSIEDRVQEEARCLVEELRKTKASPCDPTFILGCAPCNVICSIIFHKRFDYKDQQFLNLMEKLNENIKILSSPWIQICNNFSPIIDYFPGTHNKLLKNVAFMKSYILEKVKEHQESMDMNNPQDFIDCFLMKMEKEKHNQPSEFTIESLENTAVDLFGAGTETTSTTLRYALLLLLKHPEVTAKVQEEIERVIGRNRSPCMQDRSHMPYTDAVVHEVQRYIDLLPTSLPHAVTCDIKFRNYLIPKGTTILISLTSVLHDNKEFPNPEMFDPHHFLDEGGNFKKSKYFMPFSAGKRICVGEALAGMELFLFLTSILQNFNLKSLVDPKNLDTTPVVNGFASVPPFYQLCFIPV

CYP2B6 = biological target: T2, CYP2B6 (Homo sapiens, UniProt P20813); set-up: method as in doi:10.1007/s11419-011-0112-7; conditions: CYP2B6 activity; cited from earlier work
T2 construct: pooled human liver microsomes (0.2 mg/mL); tissue Corning Life Sciences; host or cells: pooled human liver microsomes (150 donors)
T2 sequence (P20813 1-491): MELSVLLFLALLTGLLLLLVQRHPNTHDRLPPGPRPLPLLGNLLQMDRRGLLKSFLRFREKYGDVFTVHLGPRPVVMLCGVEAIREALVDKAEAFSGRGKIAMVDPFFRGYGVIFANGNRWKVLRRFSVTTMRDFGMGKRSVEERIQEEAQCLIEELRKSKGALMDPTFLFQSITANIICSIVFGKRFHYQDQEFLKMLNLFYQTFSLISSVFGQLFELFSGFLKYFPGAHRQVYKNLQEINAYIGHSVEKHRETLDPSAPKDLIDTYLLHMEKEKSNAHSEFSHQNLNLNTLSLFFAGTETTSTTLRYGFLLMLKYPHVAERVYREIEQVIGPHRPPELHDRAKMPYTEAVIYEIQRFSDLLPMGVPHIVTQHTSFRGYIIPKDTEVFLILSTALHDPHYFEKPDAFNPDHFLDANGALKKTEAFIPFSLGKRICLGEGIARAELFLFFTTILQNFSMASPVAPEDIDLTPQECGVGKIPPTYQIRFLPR

CYP3A4, sequence (P08684 whole entry): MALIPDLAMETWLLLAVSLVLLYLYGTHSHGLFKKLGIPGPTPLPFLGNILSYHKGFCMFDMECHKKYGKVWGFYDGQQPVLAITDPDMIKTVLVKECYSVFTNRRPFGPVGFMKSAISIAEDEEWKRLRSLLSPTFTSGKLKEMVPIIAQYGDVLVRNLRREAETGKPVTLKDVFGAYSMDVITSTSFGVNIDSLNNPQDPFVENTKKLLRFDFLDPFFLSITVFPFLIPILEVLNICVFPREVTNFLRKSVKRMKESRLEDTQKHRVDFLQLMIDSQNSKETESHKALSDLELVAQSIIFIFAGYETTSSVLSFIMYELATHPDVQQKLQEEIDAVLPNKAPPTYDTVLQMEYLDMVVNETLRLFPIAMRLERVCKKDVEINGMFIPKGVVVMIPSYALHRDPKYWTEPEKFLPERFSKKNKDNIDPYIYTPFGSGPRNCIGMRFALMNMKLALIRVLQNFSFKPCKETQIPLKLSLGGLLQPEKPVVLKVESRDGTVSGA

| Compound | IC50 (CYP3A4) [nM] | Ki (CYP2C9) [nM] | Ki (CYP2B6) [nM] |
| --- | --- | --- | --- |
| CCCCCc1cc(O)c2c(c1)OC(C)(C)c1ccc(C)cc1-2 [cannabinol] | > 50000 |  |  |
| CCCCCc1cc(O)c2c(c1)OC(C)(C)[C@@H]1CCC(C)=C[C@@H]21 [THC, Δ9-tetrahydrocannabinol] | > 50000 | 1310 | 2810 |
